Series [1] in a line: Compound cytotoxicity, XTT-based colorimetric assay. The format is cell-based. To be noted: human, uninfected MT2 cells, day 4, XTT. The method, then: Compound cytotoxicity and the corresponding CC50 values were determined using the same protocol as described in the antiviral assay except that uninfected cells were used. Cytotoxicity was assessed on day 4 in uninfected MT2 cells by using a XTT (2,3-bis[2-Methoxy-4-nitro-5-sulfophenyl]-2H-tetrazolium-5-carboxyanilide inner salt)-based colorimetric assay (Sigma-Aldrich, St Louis, Mo.).
On the technique in general: Tetrazolium dyes change colour on reduction, which living cells bring about.

Series [2] relates to recombinant NL4-3 virus (nef section replaced with Renilla luciferase gene) in MT-2 cells. Description: HIV cell culture assay (antiviral activity, luciferase readout). Type of series: cell-based. To be noted: Renilla, NL43, MT-2 cells infected for 4-5 days with recombinant NL4-3 Renilla luciferase virus, serial dilutions of compound. How it is done:
HIV cell culture assay—MT-2 cells, 293T cells and the proviral DNA clone of NL4-3 virus were obtained from the NIH AIDS Research and Reference Reagent Program. MT-2 cells were propagated in RPMI 1640 media supplemented with 10% heat inactivated fetal bovine serum (FBS), 100 μg/ml penicillin G and up to 100 units/mL streptomycin. The 293T cells were propagated in DMEM media supplemented with 10% heat inactivated FBS, 100 μg/mL penicillin G and 100 μg/mL streptomycin. A recombinant NL4-3 proviral clone, in which a section of the nef gene was replaced with the Renilla luciferase gene, was used to make the reference virus used in these studies. The recombinant virus was prepared through transfection of the recombinant NL4-3 proviral clone into 293T cells using Transit-293 Transfection Reagent from Mirus Bio LLC (Madison, Wis.). Supernatent was harvested after 2-3 days and the amount of virus present was titered in MT-2 cells using luciferase enzyme activity as a marker by measuring luciferase enzyme activity. Luciferase was quantitated using the EnduRen Live Cell Substrate from Promega (Madison, Wis.). Antiviral activities of compounds toward the recombinant virus were quantified by measuring luciferase activity in MT-2 cells infected for 4-5 days with the recombinant virus in the presence of serial dilutions of the compound.
The 50% effective concentration (EC50) was calculated by using the exponential form of the median effect equation where (Fa)=1/[1+(ED50/drug conc.)^m] (Johnson VA, Byington RT. Infectivity Assay. In Techniques in HIV Research. ed. Aldovini A, Walker BD. 71-76. New York: Stockton Press. 1990). Curve fitting and analysis were performed with ActivityBase XE Runner software version 9.1.0.4 using model 203 (ID Business Solutions, LTD, Guildford, UK).

In general, CC50 refers to the concentration that lowers cell viability or growth by half. Read a high CC50 as better tolerance by the cells. In general, EC50 refers to the midpoint of the concentration-response curve. In series [1], `O=C(Cc1ccn(C2CC2)n1)N[C@@H](Cc1cc(F)cc(F)c1)c1nc2cc(-c3ccccc3F)ccc2c(=O)n1-c1ccc(Cl)c2c(NS(=O)(=O)C3CC3)nn(CC(F)F)c12` [Example 139, (S)-N-(1-(3-(4-chloro-3-(cyclopropanesulfonamido)-1-(2,2-difluoroethyl)-1H-indazol-7-yl)-7-(2-fluorophenyl)-4-oxo-3,4-dihydroquinazolin-2-yl)-2-(3,5-difluorophenyl)ethyl)-2-(1-cyclopropyl-1H-pyrazol-3-yl)acetamide] came in with a CC50 at 4 day above 500 nM. For the same compound, the EC50 in series [2] amounted to 0.57 nM.

`Cc1ncc(-c2ccc3c(=O)n(-c4ccc(Cl)c5c(NS(C)(=O)=O)nn(CC(F)F)c45)c([C@H](Cc4cc(F)cc(F)c4)NC(=O)Cn4nc(C(F)F)c5c4C(F)(F)[C@@H]4C[C@H]54)nc3c2)cn1` [Example 174, N-((S)-1-(3-(4-chloro-1-(2,2-difluoroethyl)-3-(methylsulfonamido)-1H-indazol-7-yl)-7-(2-methylpyrimidin-5-yl)-4-oxo-3,4-dihydroquinazolin-2-yl)-2-(3,5-difluorophenyl)ethyl)-2-((3bS,4aR)-3-(difluoromethyl)-5,5-difluoro-3b,4,4a,5-tetrahydro-1H-cyclopropa[3,4]cyclopenta[1,2-c]pyrazol-1-yl)acetamide] had a CC50 at 4 day in series [1] above 500 nM. In series [2], the EC50 stood at 0.033 nM.

In series [1], `O=C(Cn1ccc(C2CC2)n1)N[C@@H](Cc1cc(F)cc(F)c1)c1nc2cc(-c3cccnc3)ccc2c(=O)n1-c1ccc(S(=O)(=O)N2CCOCC2)cc1` [Example 20, (S)-2-(3-cyclopropyl-1H-pyrazol-1-yl)-N-(2-(3,5-difluorophenyl)-1-(3-(4-(morpholinosulfonyl)phenyl)-4-oxo-7-(pyridin-3-yl)-3,4-dihydroquinazolin-2-yl)ethyl)acetamide] displayed a half-maximal cytotoxic concentration (CC50) at 4 day above 1000 nM. Further, the EC50 in series [2] came to 3.7 nM.

In series [1], `Cn1nc(NS(C)(=O)=O)c2c(Cl)ccc(-n3c([C@H](Cc4cc(F)cc(F)c4)NC(=O)Cn4nc(C(F)F)c5c4C(F)(F)[C@@H]4C[C@H]54)nc4cc(-c5ccc(Cl)cc5F)ccc4c3=O)c21` [Example 184, N-((S)-1-(3-(4-chloro-1-methyl-3-(methylsulfonamido)-1H-indazol-7-yl)-7-(4-chloro-2-fluorophenyl)-4-oxo-3,4-dihydroquinazolin-2-yl)-2-(3,5-difluorophenyl)ethyl)-2-((3bS,4aR)-3-(difluoromethyl)-5,5-difluoro-3b,4,4a,5-tetrahydro-1H-cyclopropa[3,4]cyclopenta[1,2-c]pyrazol-1-yl)acetamide] displayed a CC50 at 4 day above 500 nM. In addition, the EC50 in series [2] is 1.8 nM.

For the compound `Cc1cccc(C)c1-c1ccc2c(=O)n(-c3ccc(Cl)c4c(NS(C)(=O)=O)nn(C)c34)c([C@H](Cc3cc(F)cc(F)c3)NC(=O)Cn3nc(C(F)F)c4c3C(F)(F)[C@@H]3C[C@H]43)nc2c1` (atropisomer, axis not shown; (aR)) [Example 26, N-((S)-1-(3-(4-chloro-1-methyl-3-(methylsulfonamido)-1H-indazol-7-yl)-7-(2,6-dimethylphenyl)-4-oxo-3,4-dihydroquinazolin-2-yl)-2-(3,5-difluorophenyl)ethyl)-2-((3bS,4aR)-3-(difluoromethyl)-5,5-difluoro-3b,4,4a,5-tetrahydro-1H-cyclopropa[3,4]cyclopenta[1,2-c]pyrazol-1-yl)acetamide], in series [1], the CC50 at 4 day was above 1000 nM. Moreover, the EC50 in series [2] was 0.72 nM.

The compound `Cn1nc(NS(C)(=O)=O)c2c(Cl)ccc(-n3c([C@H](Cc4cc(F)cc(F)c4)NC(=O)Cn4nc(C(F)F)c5c4C(F)(F)[C@@H]4C[C@H]54)nc4cc(-c5ccc(C(=O)N6CCCCC6)cc5)ccc4c3=O)c21` (atropisomer, axis not shown; (aR)) [Example 34, N-((S)-1-(3-(4-chloro-1-methyl-3-(methylsulfonamido)-1H-indazol-7-yl)-4-oxo-7-(4-(piperidine-1-carbonyl)phenyl)-3,4-dihydroquinazolin-2-yl)-2-(3,5-difluorophenyl)ethyl)-2-((3bS,4aR)-3-(difluoromethyl)-5,5-difluoro-3b,4,4a,5-tetrahydro-1H-cyclopropa[3,4]cyclopenta[1,2-c]pyrazol-1-yl)acetamide] came in with a CC50 at 4 day in series [1] above 1000 nM. Moreover, the EC50 in series [2] was 0.46 nM.

Compound `CC(C)c1ccc(-n2c([C@H](Cc3cc(F)cc(F)c3)NC(=O)Cn3nc(C(F)F)c4c3C(F)(F)[C@@H]3C[C@H]43)nc3cc(-c4nnn[nH]4)ccc3c2=O)cn1` [Example 7, 2-((3bS,4aR)-3-(difluoromethyl)-5,5-difluoro-3b,4,4a,5-tetrahydro-1H-cyclopropa[3,4]cyclopenta[1,2-c]pyrazol-1-yl)-N-((S)-2-(3,5-difluorophenyl)-1-(3-(6-isopropylpyridin-3-yl)-4-oxo-7-(1H-tetrazol-5-yl)-3,4-dihydroquinazolin-2-yl)ethyl)acetamide] yielded a CC50 at 4 day in series [1] above 1000 nM. In addition, in series [2], the EC50 worked out at 4130 nM.

In series [1], `Cc1cc(C)nc(-c2ccc3c(=O)n(-c4ccc(Cl)c5c(NS(=O)(=O)C6CC6)nn(CC(F)F)c45)c([C@H](Cc4cc(F)cc(F)c4)NC(=O)Cn4nc(C(F)F)c5c4C(F)(F)[C@@H]4C[C@H]54)nc3c2)n1` (atropisomer, axis not shown; (aR)) [Example 129, N-((S)-1-(3-(4-chloro-3-(cyclopropanesulfonamido)-1-(2,2-difluoroethyl)-1H-indazol-7-yl)-7-(4,6-dimethylpyrimidin-2-yl)-4-oxo-3,4-dihydroquinazolin-2-yl)-2-(3,5-difluorophenyl)ethyl)-2-((3bS,4aR)-3-(difluoromethyl)-5,5-difluoro-3b,4,4a,5-tetrahydro-1H-cyclopropa[3,4]cyclopenta[1,2-c]pyrazol-1-yl)acetamide] yielded a CC50 at 4 day above 500 nM. For the same compound, in series [2], the EC50 was determined as 0.095 nM.

In the case of `Cn1nc(NS(C)(=O)=O)c2c(Cl)ccc(-n3c([C@H](Cc4cc(F)cc(F)c4)NC(=O)Cn4nc(C(F)F)c5c4C(F)(F)[C@@H]4C[C@H]54)nc4cc(-c5ccc(F)c(CO)c5)ccc4c3=O)c21` (atropisomer, axis not shown; (aR)) [Example 98, N-((S)-1-(3-(4-chloro-1-methyl-3-(methylsulfonamido)-1H-indazol-7-yl)-7-(4-fluoro-3-(hydroxymethyl)phenyl)-4-oxo-3,4-dihydroquinazolin-2-yl)-2-(3,5-difluorophenyl)ethyl)-2-((3bS,4aR)-3-(difluoromethyl)-5,5-difluoro-3b,4,4a,5-tetrahydro-1H-cyclopropa[3,4]cyclopenta[1,2-c]pyrazol-1-yl)acetamide], the CC50 at 4 day in series [1] was above 1000 nM. Moreover, the EC50 in series [2] was 0.39 nM.

Compound `Cc1ccnc(-c2ccc3c(=O)n(-c4ccc(Cl)c5c(NS(=O)(=O)C6CC6)nn(CC(F)F)c45)c([C@H](Cc4cc(F)cc(F)c4)NC(=O)Cn4nc(C(F)F)c5c4C(F)(F)[C@@H]4C[C@H]54)nc3c2)n1` [Example 159, N-((S)-1-(3-(4-chloro-3-(cyclopropanesulfonamido)-1-(2,2-difluoroethyl)-1H-indazol-7-yl)-7-(4-methylpyrimidin-2-yl)-4-oxo-3,4-dihydroquinazolin-2-yl)-2-(3,5-difluorophenyl)ethyl)-2-((3bS,4aR)-3-(difluoromethyl)-5,5-difluoro-3b,4,4a,5-tetrahydro-1H-cyclopropa[3,4]cyclopenta[1,2-c]pyrazol-1-yl)acetamide] had a CC50 at 4 day in series [1] above 500 nM. Moreover, in series [2], the EC50 came to 0.1 nM.

Take `Cn1nc(NS(C)(=O)=O)c2c(Cl)ccc(-n3c([C@H](Cc4cc(F)cc(F)c4)NC(=O)Cn4nc(C(F)F)c5c4C(F)(F)[C@@H]4C[C@H]54)nc4cc(-c5cc(F)c(F)cc5F)ccc4c3=O)c21` [Example 171, N-((S)-1-(3-(4-chloro-1-methyl-3-(methylsulfonamido)-1H-indazol-7-yl)-4-oxo-7-(2,4,5-trifluorophenyl)-3,4-dihydroquinazolin-2-yl)-2-(3,5-difluorophenyl)ethyl)-2-((3bS,4aR)-3-(difluoromethyl)-5,5-difluoro-3b,4,4a,5-tetrahydro-1H-cyclopropa[3,4]cyclopenta[1,2-c]pyrazol-1-yl)acetamide]: the EC50 in series [2] amounted to 0.48 nM.

Source of the values: patent US11505543B2, “4-oxo-3,4-dihydroquinazoline compounds as inhibitors of human immunodeficiency virus replication” (VIIV HEALTHCARE UK (NO.5) LIMITED, priority 2018, dated 2022).
